PubChem BioAssay AID977614 (Broad Institute, 2014)
Active and inactive are the calls of the source.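 The calls were made as follows: active = parasite count per well reduced by over 3 SD from the mean, with host cell number above 80% of untreated; inactive = the rest.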

Tested on: L. donovani amastigotes in THP-1 macrophages, DAPI imaging, 72 h
Assay: antileishmanial activity in infected macrophages – imaging, THP-1 host macrophages, single concentration (AID 977614);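 also: signal is the parasite per host cell ratio from DAPI stained kinetoplasts and nuclei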

Row | Structure (SMILES) | AC50
1 | CCN(C[C@H]1[C@H](c2ccc(-c3cccnc3)cc2)[C@@H](CO)N1C(C)=O)C(C)=O | > 10 µM (inactive)
2 | CC(=O)N1[C@H](CO)[C@H](c2ccccc2)[C@@H]1CN(C(=O)c1ccccc1F)C(C)C | > 10 µM (inactive)
3 | O=C(Cc1cccnc1)N1[C@@H](CO)[C@@H](c2ccccc2)[C@@H]1CNCC1CCC1 | > 10 µM (inactive)
4 | CCC(=O)N1C[C@@H]2[C@H](c3ccccc31)[C@@H](CO)N2C(=O)CC1CC1 | > 10 µM (inactive)
5 | Cc1noc(C)c1S(=O)(=O)N(C)C[C@H]1OCc2cn(nn2)CCCC(=O)N([C@H](C)CO)C[C@H]1C | > 10 µM (inactive)
6 | C[C@H]1CN([C@@H](C)CO)C(=O)CCCn2cc(nn2)CO[C@H]1CN(C)C(=O)Oc1ccc2ccccc2c1 | > 10 µM (inactive)
7 | C/C=C/c1ccc([C@H]2[C@@H](CO)N[C@@H]2CN(C(=O)c2ccccc2F)C(C)C)cc1 | > 10 µM (inactive)
8 | CCC(=O)N1[C@H](CO)[C@@H](c2ccccc2)[C@@H]1CN(CC)C(=O)c1cccc(F)c1 | > 10 µM (inactive)
9 | O=C(C1CCCCC1)N1[C@H](CO)[C@@H]2c3ccccc3NC[C@@H]21 | > 10 µM (inactive)
10 | COCC(=O)N1[C@@H](CO)[C@@H]2c3ccccc3N(C(=O)c3cccnc3)C[C@@H]21 | > 10 µM (inactive)
11 | O=C(NC[C@@H]1[C@@H](c2ccccc2)[C@H](CO)N1Cc1ccccn1)C1CCCC1 | > 10 µM (inactive)
12 | Cc1cccc(S(=O)(=O)N2C[C@H]3[C@@H](c4ccccc42)[C@H](CO)N3C(=O)c2ccccc2)c1 | > 10 µM (inactive)
13 | O=C(CN1CCOCC1)NC[C@@H]1N[C@@H](CO)[C@@H]1c1ccc(-c2ccccc2)cc1 | > 10 µM (inactive)
14 | COCC(=O)N1[C@H](CO)[C@@H]2c3ccccc3NC[C@@H]21 | > 10 µM (inactive)
15 | C/C=C/c1ccc([C@@H]2[C@H](CO)N(C(C)=O)[C@H]2CNC(=O)c2ccccc2)cc1 | > 10 µM (inactive)
16 | CCC(=O)N1[C@@H](CO)[C@@H](c2ccccc2)[C@@H]1CN(CC)C(=O)c1cccc(F)c1 | > 10 µM (inactive)
17 | C[C@@H]1CN([C@H](C)CO)C(=O)CCCn2nncc2CO[C@@H]1CN(C)S(=O)(=O)c1ccc(Oc2ccccc2)nc1 | > 10 µM (inactive)
18 | C[C@H]1CN([C@@H](C)CO)C(=O)CCCn2cc(nn2)CO[C@H]1CN(C)C(=O)Nc1cccc(C(F)(F)F)c1 | > 10 µM (inactive)
19 | CC(=O)NC[C@H]1[C@@H](c2ccc(C#CC(C)C)cc2)[C@@H](CO)N1Cc1ccccn1 | > 10 µM (inactive)
20 | CC(=O)N1[C@H](CO)[C@H](c2ccccc2)[C@H]1CN(CC(C)C)C(=O)c1ccccn1 | > 10 µM (inactive)
21 | O=C(Nc1ccccc1Cl)N1C[C@@H]2[C@H](c3ccccc31)[C@@H](CO)N2Cc1ccncc1 | > 10 µM (inactive)
22 | CN1C[C@H]2[C@@H](c3ccccc31)[C@@H](CO)N2C(=O)c1cccnc1 | > 10 µM (inactive)
23 | O=C(Cc1cccnc1)N1[C@@H](CO)[C@H](c2ccccc2)[C@@H]1CNCC1CCC1 | > 10 µM (inactive)
24 | Cc1cccc(S(=O)(=O)N2C[C@@H]3[C@H](c4ccccc42)[C@H](CO)N3Cc2ccc3c(c2)OCO3)c1 | > 10 µM (inactive)
25 | CCCC(=O)N1C[C@H]2[C@@H](c3ccccc31)[C@@H](CO)N2C(=O)Nc1ccc(F)cc1 | > 10 µM (inactive)
26 | CCC(=O)N1[C@H](CO)[C@H]2c3ccccc3N(S(=O)(=O)c3ccc(F)cc3)C[C@H]21 | > 10 µM (inactive)

Row | Structure (SMILES) | AC50
27 | O=C(NC[C@@H]1N[C@@H](CO)[C@@H]1c1ccc(-c2ccccc2F)cc1)c1ccccn1 | > 10 µM (inactive)
28 | Cc1noc(C)c1NC(=O)N(C)C[C@@H]1OCc2cn(nn2)CCCC(=O)N([C@@H](C)CO)C[C@H]1C | > 10 µM (inactive)
29 | O=S(=O)(NC[C@@H]1[C@H](c2ccccc2)[C@H](CO)N1CC1CC1)c1ccccc1 | > 10 µM (inactive)
30 | CCCC#Cc1ccc([C@H]2[C@@H](CO)N(C(C)=O)[C@H]2CN(C)C(=O)C2CC2)cc1 | > 10 µM (inactive)
31 | CCC(=O)N(CC(C)C)C[C@H]1[C@H](c2ccccc2)[C@@H](CO)N1C(=O)C1CCC1 | > 10 µM (inactive)
32 | C[C@H](CO)N1C[C@H](C)[C@H](CN(C)C(=O)Nc2cccc(Oc3ccccn3)c2)OCc2cnnn2CCCC1=O | > 10 µM (inactive)
33 | CN(C[C@@H]1[C@H](c2ccccc2)[C@@H](CO)N1Cc1ccccn1)S(C)(=O)=O | > 10 µM (inactive)
34 | Cc1noc(C)c1NC(=O)N(C)C[C@@H]1OCc2cnnn2CCCC(=O)N([C@H](C)CO)C[C@H]1C | > 10 µM (inactive)
35 | CCS(=O)(=O)N(C)C[C@H]1[C@@H](c2ccccc2)[C@@H](CO)N1C(=O)CN(C)C | > 10 µM (inactive)
36 | C[C@@H]1CN([C@H](C)CO)C(=O)CCCn2cc(nn2)CO[C@@H]1CN(C)S(=O)(=O)c1ccc(-n2cccn2)cc1 | > 10 µM (inactive)
37 | CCC(=O)N1[C@H](CO)[C@@H](c2ccccc2)[C@@H]1CN(C)C(=O)CN1CCOCC1 | > 10 µM (inactive)
38 | CCN(C[C@@H]1N[C@@H](CO)[C@@H]1c1ccccc1)C(=O)c1ccncc1 | > 10 µM (inactive)
39 | CN1[C@@H](CO)[C@@H]2c3ccccc3N(C(=O)Nc3cc(F)ccc3F)C[C@@H]21 | > 10 µM (inactive)
40 | COc1ccc(-c2ccc([C@@H]3[C@H](CN(C)S(C)(=O)=O)N[C@@H]3CO)cc2)cc1 | > 10 µM (inactive)
41 | C[C@@H]1CN([C@@H](C)CO)C(=O)CCCn2cc(nn2)CO[C@H]1CN(C)C(=O)CCC(F)(F)F | > 10 µM (inactive)
42 | CCC(=O)N1[C@H](CO)[C@H](c2ccc(C#CC3(O)CCCC3)cc2)[C@@H]1CNC(C)=O | > 10 µM (inactive)
43 | CCCNC(=O)N1C[C@@H]2[C@H](c3ccccc31)[C@H](CO)N2C(=O)Nc1ccccc1F | > 10 µM (inactive)
44 | CC(=O)N1[C@H](CO)[C@@H](c2ccccc2)[C@@H]1CNC(=O)CN1CCOCC1 | > 10 µM (inactive)
45 | CCN(C[C@@H]1N[C@@H](CO)[C@H]1c1ccc(-c2ccc(F)cc2)cc1)C(=O)CN(C)C | > 10 µM (inactive)
46 | COCC(=O)NC[C@@H]1[C@@H](c2ccccc2)[C@@H](CO)N1C(=O)c1ccccc1 | > 10 µM (inactive)
47 | C/C=C/c1ccc([C@@H]2[C@H](CO)N[C@H]2CNS(=O)(=O)c2ccccc2)cc1 | > 10 µM (inactive)
48 | C[C@H](CO)N1C[C@H](C)[C@@H](CN(C)Cc2ccc(C(=O)Nc3ccccc3N)cc2)OCc2cnnn2CCCC1=O | > 10 µM (inactive)
49 | COc1ccc(C(=O)N2C[C@@H]3[C@H](c4ccccc42)[C@H](CO)N3C(=O)Cc2ccccn2)cc1 | > 10 µM (inactive)
50 | O=C(CC(F)(F)F)N1C[C@H]2[C@@H](c3ccccc31)[C@@H](CO)N2C(=O)c1ccncc1 | > 10 µM (inactive)
51 | C/C=C/c1ccc([C@H]2[C@@H](CO)N(CCC)[C@H]2CNC(=O)CN2CCOCC2)cc1 | > 10 µM (inactive)
52 | C[C@H](CO)N1C[C@H](C)[C@@H](CN(C)C(=O)NC2CCCC2)OCc2cnnn2CCCC1=O | > 10 µM (inactive)

Row | Structure (SMILES) | AC50
53 | Cc1ccc(S(=O)(=O)N2C[C@@H]3[C@H](c4ccccc42)[C@H](CO)N3Cc2cccnc2)cc1 | > 10 µM (inactive)
54 | CCCN1[C@H](CO)[C@H](c2ccc(C#Cc3ccccc3)cc2)[C@@H]1CNC1CCCC1 | > 10 µM (inactive)
55 | C[C@H]1CN([C@@H](C)CO)C(=O)CCCn2cc(nn2)CO[C@@H]1CN(C)Cc1ccccc1 | > 10 µM (inactive)
56 | O=C(NC[C@H]1N[C@H](CO)[C@@H]1c1ccc(-c2cncnc2)cc1)C1CCCCC1 | > 10 µM (inactive)
57 | CCCNC(=O)N1[C@H](CO)[C@@H]2c3ccccc3N(C(=O)Nc3cccc(Cl)c3)C[C@@H]21 | > 10 µM (inactive)
58 | O=C(C1CC1)N1C[C@H]2[C@@H](c3ccccc31)[C@@H](CO)N2C(=O)c1ccccc1 | > 10 µM (inactive)
59 | CCN(C[C@@H]1[C@@H](c2ccccc2)[C@H](CO)N1C(C)=O)C(=O)NC1CCCC1 | > 10 µM (inactive)
60 | C[C@H](CO)N1C[C@H](C)[C@@H](CN(C)Cc2ccc3cccnc3c2)OCc2cnnn2CCCC1=O | > 10 µM (inactive)
61 | CCNC[C@@H]1[C@@H](c2ccccc2)[C@@H](CO)N1C(=O)Cc1ccccn1 | > 10 µM (inactive)
62 | O=C(CC1CC1)NC[C@H]1N[C@H](CO)[C@@H]1c1ccc(-c2ccc(F)cc2)cc1 | > 10 µM (inactive)
63 | CCN(C[C@H]1[C@@H](c2ccccc2)[C@@H](CO)N1C(=O)COC)S(C)(=O)=O | > 10 µM (inactive)
64 | O=C(Cc1ccccc1)NC[C@H]1N[C@H](CO)[C@@H]1c1ccc(C2=CCCC2)cc1 | > 10 µM (inactive)
65 | CC(=O)N1[C@H](CO)[C@H](c2ccc(C3=CCCCC3)cc2)[C@@H]1CNC(=O)CN(C)C | > 10 µM (inactive)
66 | C[C@@H]1CN([C@H](C)CO)C(=O)CCCn2nncc2CO[C@H]1CN(C)Cc1cccc(C(F)(F)F)c1 | > 10 µM (inactive)
67 | O=C(NC[C@H]1N[C@H](CO)[C@@H]1c1ccccc1)c1ccccc1F | > 10 µM (inactive)
68 | CC(C)N(C[C@@H]1[C@@H](c2ccccc2)[C@@H](CO)N1S(C)(=O)=O)C(=O)CN(C)C | > 10 µM (inactive)
69 | C[C@H]1CN([C@@H](C)CO)C(=O)CCCn2nncc2CO[C@@H]1CN(C)Cc1ccc2cccnc2c1 | > 10 µM (inactive)
70 | CCC(=O)N1[C@H](CO)[C@@H]2c3ccccc3N(C(=O)Nc3ccc(Cl)cc3)C[C@@H]21 | > 10 µM (inactive)
71 | O=S(=O)(NC[C@@H]1[C@@H](c2ccccc2)[C@H](CO)N1CC1CC1)c1ccccc1 | > 10 µM (inactive)
72 | COCC(=O)N(C[C@H]1[C@H](c2ccccc2)[C@H](CO)N1C(=O)NC(C)C)C(C)C | > 10 µM (inactive)
73 | O=C(c1ccncc1)N1C[C@H]2[C@@H](c3ccccc31)[C@H](CO)N2C(=O)CN1CCOCC1 | > 10 µM (inactive)
74 | CN1[C@@H]2CN(C(=O)Nc3cc(F)ccc3F)c3ccccc3[C@@H]2[C@@H]1CO | > 10 µM (inactive)
75 | CC(=O)N1[C@@H](CO)[C@H](c2ccccc2)[C@@H]1CN(C)S(=O)(=O)c1ccccc1 | > 10 µM (inactive)
76 | O=C(Nc1ccc(F)cc1)N1C[C@H]2[C@@H](c3ccccc31)[C@@H](CO)N2Cc1ccccc1Cl | > 10 µM (inactive)
77 | C[C@@H]1CN([C@@H](C)CO)C(=O)CCCn2nncc2CO[C@@H]1CN(C)C(=O)c1ccc2ccn(C)c2c1 | > 10 µM (inactive)
